What all share (assay type): functional, organism-based
The subject of one assay is Entamoeba histolytica. Put plainly: Inhibitory concentration against Entamoeba histolytica (HK-9) for antiprotozoal activity.
For the next assay, the system named is Giardia intestinalis. In words: Inhibitory concentration against G. Lamblia (IMSS-0989) for antigiardial activity. Conditions: Giardia duodenalis.
In the next assay the test system is Trichomonas vaginalis. Put plainly: Inhibitory concentration against Trichomonas vaginalis (tv-43) for anti-trichomonal activity.

SMILES strings stand for the structures.

On to `CCCC/N=C(\S)N/N=C/c1ccc([N+](=O)[O-])s1`, for which the IC50 with Entamoeba histolytica was 12.2 µM; with Giardia intestinalis it was 17.2 µM; in the assay on Trichomonas vaginalis, 1.49 µM.

In the case of `CC(C)CN(CC(C)C)/C(S)=N/N=C/c1ccc([N+](=O)[O-])s1`, the IC50 in the assay on Entamoeba histolytica came out at 11.6 µM; in the assay with Giardia intestinalis it was 12 µM; in the assay on Trichomonas vaginalis, 4.44 µM.

In the case of `O=[N+]([O-])c1ccc(/C=N/N=C(\S)N2CCCCCC2)s1`, the half-maximal inhibitory concentration (IC50) in the assay on Entamoeba histolytica stood at 1.71 µM; with Giardia intestinalis, 8.47 µM; in the assay on Trichomonas vaginalis it was 8.78 µM.

`O=[N+]([O-])c1ccc(/C=N/N=C(\S)NC2CCCCC2)s1`: the results for the IC50 in the assay on Entamoeba histolytica, with Giardia intestinalis and with Trichomonas vaginalis were 2.41 µM, 13.9 µM and 10.7 µM, respectively.

`CCC/N=C(\S)N/N=C/c1ccc([N+](=O)[O-])s1`: the 50% inhibitory concentration (IC50) in the assay on Entamoeba histolytica was 15.4 µM; in the assay with Giardia intestinalis, 57.3 µM; in the assay on Trichomonas vaginalis it was 21 µM.

In the case of `CCCN(CCC)/C(S)=N/N=C/c1ccc([N+](=O)[O-])s1`, the IC50 in the assay with Entamoeba histolytica was 6.4 µM; with Giardia intestinalis, 8.2 µM; in the assay with Trichomonas vaginalis it was 4.06 µM.

With `CN(/C(S)=N/N=C/c1ccc([N+](=O)[O-])s1)C1CCCCC1`, the IC50 in the assay with Entamoeba histolytica was 8.3 µM; in the assay with Giardia intestinalis, 11.7 µM; in the assay with Trichomonas vaginalis, 18.3 µM.

Regarding `CCN(CC)/C(S)=N/N=C/c1ccc([N+](=O)[O-])s1`, the results for the IC50 with Entamoeba histolytica, in the assay with Giardia intestinalis and in the assay on Trichomonas vaginalis were 10.1 µM, 8.03 µM and 6.01 µM, respectively.

For `CC(C)C/N=C(\S)N/N=C/c1ccc([N+](=O)[O-])s1`, the figures for the concentration for half-maximal inhibition (IC50) with Entamoeba histolytica, with Giardia intestinalis and in the assay with Trichomonas vaginalis were 13.5 µM, 33.3 µM and 6.31 µM, respectively.

As to `CC(C)/N=C(\S)N/N=C/c1ccc([N+](=O)[O-])s1`, the values for the IC50 in the assay on Entamoeba histolytica, in the assay with Giardia intestinalis and in the assay with Trichomonas vaginalis were 9.6 µM, 26.2 µM and 5.94 µM, respectively.

In the case of `O=[N+]([O-])c1ccc(/C=N/N=C(\S)NC2CCCC2)s1`, the IC50 in the assay on Entamoeba histolytica is 2.86 µM; with Giardia intestinalis it was 33 µM; in the assay with Trichomonas vaginalis, 3.97 µM.

With `Cc1ncc([N+](=O)[O-])n1CCO` [METRONIDAZOLE], the values for the IC50 in the assay on Entamoeba histolytica, in the assay on Giardia intestinalis and in the assay with Trichomonas vaginalis were 2.1 µM, 1.16 µM and 1.92 µM, respectively.

For orientation: IC50 means the concentration needed to halve the response being measured.
